In patent US20160186187A1, “REGULATABLE GENE EXPRESSION” (BIOSYNTIA APS, priority 2013, published 2016):
“Also recorded” adds a separate entry of the source.

Tests used:
mCTC8-4 aptamer = conditions: previously determined (Jenison et al., 1994); cited from earlier work
EcpGEBO5.1 [1] = assay: Growth response of EcpGEBO5.1 for xanthine alkaloids (plate selection assay); assay type: cell-based, Escherichia coli; conditions: for Growth, Selection: ampicillin 50 μg/mL, spectinomycin 80 μg/mL, chloramphenicol 30 μg/mL; for Growth, No Selection: plates without spectinomycin and chloramphenicol
Procedure: The growth response of EcpGEBO5.1 for 4 different xanthine alkaloids was determined empirically using a selection assay with varying concentrations xanthine-based compounds: theophylline, xanthine, theobromine and caffeine.
Procedure: 300-400 colony forming units were plated on plates containing ampicillin (50 μg/mL), spectinomycin (80 μg/mL), chloramphenicol (30 μg/mL) and the indicated concentration of xanthine-based compound—see Table 2: Dissociation constants (KJ for the xanthines with the aptamer region (mCTC8-4 aptamer) previously determined (Jenison et al., 1994). No selection means plates without spectinomycin and chloramphenicol. (+) means growth was observed. (−) means no growth was observed. (˜) means reduced growth was observed.

EcpGEBO5.1 + pZE21 = assay: Growth response to xanthine in M9 minimal medium, control strain; assay type: cell-based, Escherichia coli; conditions: for OD600 of EcpGEBO5.1 + pZE21: selection (chloramphenicol 30 μg/ml, spectinomycin 80 μg/ml), 16 h
Procedure: (§1) In order to test the hypothesis, growth experiments with and without xanthine was performed. First, in order eliminate the putative contribution of any background mutation of the genome or of the pGEBO5.1 assay plasmid the library plasmid encoding the putative xanthine permease (pZE21_1H) from the AB95D01 soil metagenomic library was extracted and retransformed in strain EcpGEBO5.1. Instead of testing the strain in LB-medium, xanthine-free M9 minimal medium was used to test the effect of defined xanthine concentrations. Strain EcpGEBO5.1 transformed with the empty cloning vector pZE21 (EcpGEBO5.1+pZE21) was used as a control. Both strains were inoculated in 3 ml M9 minimal medium supplemented with kanamycin 50 μg/ml and ampicillin 50 μg/ml and grown overnight. The next day a new 3 ml culture was prepared under same conditions and inoculated by transferring 30 μl from the initial culture. At exponential phase (when the optical density at 600 nm (0D600) had reached ˜0.5) the culture was used to inoculate 200 μl M9 minimal selective media in a microtiterplate with varying concentrations of xanthine (Table below). Inoculums were diluted such that the initial OD600 of each culture was exactly 0.01. The microtiter plate was incubated at 37° C. in an ELx808 Absorbance Microtiterplate Reader from Biotek with shaking at 200 rpm. OD600 was measured after 16 h and the average and standard deviation was calculated from three biological replicates of each xanthine concentration. When grown in concentrations of xanthine ranging from 0 mM to 1 mM but no chloramphenicol or spectinomycin both strains were unaffected by the presence of xanthine. When applying selection (chloramphenicol 30 μg/ml and spectinomycin 80 μg/ml), growth was observed only for the strain harbouring the xanthine permease containing plasmid (pZE21_1H) and only when xanthine was added (Table 3). The experiment confirms the prediction that the DNA insert is encoding a xanthine permease protein, and that the increased xanthine uptake enables growth under selective conditions.

EcpGEBO5.1 + pZE21_1H = assay: Growth response to xanthine in M9 minimal medium, xanthine permease strain; assay type: cell-based, Escherichia coli; conditions: for OD600 of EcpGEBO5.1 + pZE21_1H: selection (chloramphenicol 30 μg/ml, spectinomycin 80 μg/ml), 16 h
Procedure: as §1

EcpGEBO5.1 [2] = assay: Spontaneous resistance of EcpGEBO5.1 in single and dual antibiotic selection (plating); assay type: cell-based, Escherichia coli; conditions: for Growth on antibiotic plate: LB agar, chloramphenicol 30 μg/mL and/or spectinomycin 80 μg/mL; for Colonies on single selection plates (in words): three plates each, 24 h of incubation
Procedure: pGEBO5.1 was transformed into E. coli Dh10B cells (forming EcpGEBO5.1) using standard methods known to the skilled person. To test whether the double selection system solved the problem of spontaneous resistance, plating of up to 1.3×10^8 EcpGEBO5.1 cells was performed in 10 replicates on LB agar media containing spectinomycin (80 μg/mL) and chloramphenicol (30 μg/mL) (‘dual selection’). As a control, plating on plates containing only chloramphenicol (30 μg/mL) or spectinomycin (80 μg/mL) (‘single selection’) was each performed in triplicate (See Table 1). Each plate was incubated for 72 hours. Of the 10 plates with dual selection no colonies were observed within the first 48 hours of incubation. […] Therefore, it appears that the probability of a single mutation to confer spontaneous resistance to one antibiotic is significant whereas the probability of a simultaneous double mutation to confer spontaneous resistance to both antibiotics is effectively nil.

[3] = xanthine 0 mM to 1 mM, no chloramphenicol or spectinomycin
[4] = 1.3 × 10^6 CFU plated (1 ul), 24 h growth
[5] = 1.3 × 10^6 CFU plated (1 ul), 48 h growth
[6] = 1.3 × 10^6 CFU plated (1 ul), 72 h growth
[7] = 1.3 × 10^7 CFU plated (10 ul), 24 h growth
[8] = 1.3 × 10^7 CFU plated (10 ul), 48 h growth
[9] = 1.3 × 10^7 CFU plated (10 ul), 72 h growth

SMILES	Kd (mCTC8-4 aptamer) [µM]	Growth, Selection (EcpGEBO5.1 [1]; 1 mM xanthine compound)	Growth, No Selection (EcpGEBO5.1 [1]; 1 mM xanthine compound)	Growth on antibiotic plate (EcpGEBO5.1 [2]; [4])	Growth on antibiotic plate (EcpGEBO5.1 [2]; [5])	Growth on antibiotic plate (EcpGEBO5.1 [2]; [6])	Growth on antibiotic plate (EcpGEBO5.1 [2]; [7])	Growth on antibiotic plate (EcpGEBO5.1 [2]; [8])	Growth on antibiotic plate (EcpGEBO5.1 [2]; [9])	Colonies on single selection plates (in words) (EcpGEBO5.1 [2])	further results
Cn1c(=O)c2c(ncn2C)n(C)c1=O [Caffeine, caffeine]	3500 ± 1500										Growth, Selection (EcpGEBO5.1 [1]; 3 mM xanthine compound): −; Growth, No Selection (EcpGEBO5.1 [1]; 3 mM xanthine compound): +; Growth, Selection (EcpGEBO5.1 [1]; 7 mM xanthine compound): −
Cn1cnc2c1c(=O)[nH]c(=O)n2C [Theobromine, theobromine]	> 500	−	+								
Cn1c(=O)c2[nH]cnc2n(C)c1=O [Theophylline, theophylline]	0.32 ± 0.13										Growth, No Selection (EcpGEBO5.1 [1]; 0.1 mM xanthine compound): +; Growth, Selection (EcpGEBO5.1 [1]; 2 mM xanthine compound): +; Growth, No Selection (EcpGEBO5.1 [1]; 2 mM xanthine compound): +
O=c1[nH]c(=O)c2[nH]cnc2[nH]1 [Xanthine, xanthine]	8.5 ± 0.4	−	+								Effect of xanthine on growth without selection (EcpGEBO5.1 + pZE21; [3]): unaffected; OD600 of EcpGEBO5.1 + pZE21 (EcpGEBO5.1 + pZE21; xanthine 1.0 μM): 0.02 ± 0.00; OD600 of EcpGEBO5.1 + pZE21 (EcpGEBO5.1 + pZE21; xanthine 1.5 μM): 0.02 ± 0.00; OD600 of EcpGEBO5.1 + pZE21 (EcpGEBO5.1 + pZE21; xanthine 2.0 μM): 0.02 ± 0.00; OD600 of EcpGEBO5.1 + pZE21 (EcpGEBO5.1 + pZE21; xanthine 2.5 μM): 0.03 ± 0.00; OD600 of EcpGEBO5.1 + pZE21 (EcpGEBO5.1 + pZE21; xanthine 4.5 μM): 0.03 ± 0.00; OD600 of EcpGEBO5.1 + pZE21 (EcpGEBO5.1 + pZE21; xanthine 12.5 μM): 0.03 ± 0.01; Effect of xanthine on growth without selection (EcpGEBO5.1 + pZE21_1H; [3]): unaffected; OD600 of EcpGEBO5.1 + pZE21_1H (EcpGEBO5.1 + pZE21_1H; xanthine 1.0 μM): 0.17 ± 0.01; OD600 of EcpGEBO5.1 + pZE21_1H (EcpGEBO5.1 + pZE21_1H; xanthine 1.5 μM): 0.29 ± 0.01; OD600 of EcpGEBO5.1 + pZE21_1H (EcpGEBO5.1 + pZE21_1H; xanthine 2.0 μM): 0.37 ± 0.00; OD600 of EcpGEBO5.1 + pZE21_1H (EcpGEBO5.1 + pZE21_1H; xanthine 2.5 μM): 0.42 ± 0.00; OD600 of EcpGEBO5.1 + pZE21_1H (EcpGEBO5.1 + pZE21_1H; xanthine 4.5 μM): 0.50 ± 0.01; OD600 of EcpGEBO5.1 + pZE21_1H (EcpGEBO5.1 + pZE21_1H; xanthine 12.5 μM): 0.51 ± 0.01; Growth of EcpGEBO5.1 under selective conditions (in words) (EcpGEBO5.1 [1]; 1 mM xanthine in the growth medium): lack of growth; also recorded: did not enable growth
O=C(N[C@H](CO)[C@H](O)c1ccc([N+](=O)[O-])cc1)C(Cl)Cl [chloramphenicol]				−	+ (‘+’ single colonies (1-1000))	+ (‘+’ single colonies (1-1000))	+ (‘+’ single colonies (1-1000))	++	++	numerous colonies	
CN[C@@H]1[C@H](O)[C@H](NC)[C@H]2O[C@@]3(O)C(=O)C[C@@H](C)O[C@H]3O[C@@H]2[C@H]1O [spectinomycin]				+ (‘+’ single colonies (1-1000))	++	++	+ (‘+’ single colonies (1-1000))	++	++	numerous colonies	
